Data from patent US20220313701A1, “MODULATORS OF TREX1” (Constellation Pharmaceuticals, Inc., priority 2019, published 2022).

Experiments:
full length human TREX1 = target: T1, full length human TREX1 (Homo sapiens, UniProt Q9NSU2); test: TREX1 Biochemical Assay (fluorescence assay, degradation of dsDNA substrate); conditions: 150 pM TREX1, 60 nM dsDNA substrate, 25 minutes at room temperature
T1 construct: N-terminally His-Tev tagged full length human TREX1; His-Tev (His tag with TEV site) (N); made in house; host or cells: E. coli
T1 sequence (Q9NSU2 1-314): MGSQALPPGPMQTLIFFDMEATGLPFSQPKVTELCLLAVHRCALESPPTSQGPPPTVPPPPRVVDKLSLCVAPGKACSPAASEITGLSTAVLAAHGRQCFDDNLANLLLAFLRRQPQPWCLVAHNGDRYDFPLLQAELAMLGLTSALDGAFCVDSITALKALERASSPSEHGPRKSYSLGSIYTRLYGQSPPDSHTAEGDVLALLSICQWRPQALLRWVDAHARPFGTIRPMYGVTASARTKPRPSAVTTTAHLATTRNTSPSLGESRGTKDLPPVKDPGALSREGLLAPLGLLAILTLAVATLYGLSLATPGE
Method in brief: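 N-terminally His-Tev-tagged enzyme expressed in E. coli, 150 pM, with 60 nM dual-labelled dsDNA (TEX615/quencher) in pH 7.4 Tris buffer with MgCl2, 1% DMSO; 10-point dose-response, 25 min at room temperature, then EDTA quench. Fluorescence at 615 nm (excitation 570 nm); IC50 from four-parameter fit against pre-quenched and no-inhibitor controls.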

[1] = target: T2, human TREX2 (residues M44-A279) (Homo sapiens, UniProt Q9BQ50); test: TREX2 Biochemical Assay (fluorescence assay, degradation of dsDNA substrate); conditions: 2.5 nM TREX2, 60 nM dsDNA substrate, 25 minutes at room temperature
T2 construct: human TREX2 (residues M44-A279, expressed in E. coli); His-Tev (His tag with TEV site) (N); made in house; host or cells: E. coli
T2 sequence (Q9BQ50 44-279 isoform Q9BQ50-1): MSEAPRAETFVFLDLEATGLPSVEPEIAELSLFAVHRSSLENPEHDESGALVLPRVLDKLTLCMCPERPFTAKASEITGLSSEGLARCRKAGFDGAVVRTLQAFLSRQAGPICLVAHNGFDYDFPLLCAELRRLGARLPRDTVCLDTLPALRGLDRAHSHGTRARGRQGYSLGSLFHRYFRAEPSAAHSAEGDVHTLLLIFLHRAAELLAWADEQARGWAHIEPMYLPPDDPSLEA
Method in brief: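 Final conditions: 2.5 nM His-Tev-tagged TREX2 (E. coli-expressed), 60 nM fluorophore/quencher-labelled dsDNA, 50 mM Tris pH 7.4, 150 mM NaCl, 100 mM MgCl2, 1% DMSO; 10-point compound dose-response. Incubated 25 min at room temperature, then EDTA-quenched; fluorescence read at ex 570/em 615 nm. IC50 from four-parameter fit against pre-quenched and no-inhibitor controls.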

| Compound | IC50 (full length human TREX1) [µM] | IC50 [1] [µM] |
| --- | --- | --- |
| OC1(c2ccccc2)CCN(c2cncc(-n3cccn3)n2)CC1 [Example 73, 1-(6-(1H-pyrazol-1-yl)pyrazin-2-yl)-4-phenylpiperidin-4-ol] | > 10 | > 100 |
| OC1(c2ccccn2)CCN(c2cncc(-n3cccn3)n2)CC1 [Example 74, 1-(6-(1H-pyrazol-1-yl)pyrazin-2-yl)-4-(pyridin-2-yl)piperidin-4-ol] | > 10 | > 100 |
| OC1(c2cccnc2)CCN(c2cncc(-n3cccn3)n2)CC1 [Example 75, 1-(6-(1H-pyrazol-1-yl)pyrazin-2-yl)-4-(pyridin-3-yl)piperidin-4-ol] | > 10 | > 100 |
| OC1(c2ccncc2)CCN(c2cncc(-n3cccn3)n2)CC1 [Example 76, 1-(6-(1H-pyrazol-1-yl)pyrazin-2-yl)-4-(pyridin-4-yl)piperidin-4-ol] | > 10 | > 100 |
| OC1(c2ccc(F)cc2)CCN(c2cncc(N3CCCC3)n2)CC1 [Example 78, 4-(4-fluorophenyl)-1-(6-(pyrrolidin-1-yl)pyrazin-2-yl)piperidin-4-ol] | > 10 | > 100 |
| OC1(c2ccc(F)cc2)CCN(c2ccc3ccccc3n2)CC1 [Example 83, 4-(4-fluorophenyl)-1-(quinolin-2-yl)piperidin-4-ol] | > 10 | > 100 |
| OC1(c2ccc(F)cc2)CCN(c2cncc(Cl)n2)CC1 [Example 84, 1-(6-chloropyrazin-2-yl)-4-(4-fluorophenyl)piperidin-4-ol] | 1 to 10 | > 100 |
| COc1cc(N2CCC(O)(c3ccc(F)cc3)CC2)ncn1 [Example 85, 4-(4-fluorophenyl)-1-(6-methoxypyrimidin-4-yl)piperidin-4-ol] | 1 to 10 | > 100 |
| OC1(c2ccc(F)cc2)CCN(c2ccccn2)CC1 [Example 86, 4-(4-fluorophenyl)-1-(pyridin-2-yl)piperidin-4-ol] | > 10 | > 100 |
| Cc1nn(C)cc1-c1cc(N2CCC(O)(c3ccc(F)c(F)c3)CC2)cnn1 [Example 87, 4-(3,4-difluorophenyl)-1-(6-(1,3-dimethyl-1H-pyrazol-4-yl)pyridazin-4-yl)piperidin-4-ol] | 1 to 10 | > 100 |
| Cc1ncc(-c2cnn(C)c2)nc1N1CCC(O)(c2ccc(F)c(F)c2)CC1 [Example 89, 4-(3,4-difluorophenyl)-1-(3-methyl-6-(1-methyl-1H-pyrazol-4-yl)pyrazin-2-yl)piperidin-4-ol] | 1 to 10 | > 100 |
| Cc1nn(C)cc1-c1nnc(N2CCC(O)(c3ccc(F)c(F)c3)CC2)s1 [Example 95, 4-(3,4-difluorophenyl)-1-(5-(1,3-dimethyl-1H-pyrazol-4-yl)-1,3,4-thiadiazol-2-yl)piperidin-4-ol] | 1 to 10 | > 100 |
| Cc1nn(C)cc1-c1csc(N2CCC(O)(c3ccc(F)c(F)c3)CC2)n1 [Example 97, 4-(3,4-difluorophenyl)-1-(4-(1,3-dimethyl-1H-pyrazol-4-yl)thiazol-2-yl)piperidin-4-ol] | 1 to 10 | > 100 |
| Cc1nc(N2CCC(O)(c3ccc(F)c(F)c3)CC2)cc(N2CCOC[C@H]2c2ccccc2)n1 [Example 104, (R)-4-(3,4-difluorophenyl)-1-(2-methyl-6-(3-phenylmorpholino)pyrimidin-4-yl)piperidin-4-ol] | 1 to 10 | > 100 |

The next lines start with the values.

| IC50 (full length human TREX1) [µM] | IC50 [1] [µM] | Compound |
| --- | --- | --- |
| 1 to 10 | > 100 | O=C(NCC(O)c1ccccc1)c1cncc(N2CCC(O)(c3ccc(F)cc3)CC2)n1 (centres unmarked) [Example 71, 6-(4-(4-fluorophenyl)-4-hydroxypiperidin-1-yl)-N-(2-hydroxy-2-phenylethyl)pyrazine-2-carboxamide] |
| 1 to 10 | > 100 | Cc1cnn(-c2cncc(N3CCC(O)(c4ccc(F)cc4)CC3)n2)c1 [Example 72, 4-(4-fluorophenyl)-1-(6-(4-methyl-1H-pyrazol-1-yl)pyrazin-2-yl)piperidin-4-ol] |
| 1 to 10 | > 100 | OC1(c2ccc(F)cc2)CCN(c2cccc(-n3cccn3)n2)CC1 [Example 79, 1-(6-(1H-pyrazol-1-yl)pyridin-2-yl)-4-(4-fluorophenyl)piperidin-4-ol] |
| 1 to 10 | > 100 | OC1(c2ccc(F)cc2)CCN(c2nccc(-n3cccn3)n2)CC1 [Example 80, 1-(4-(1H-pyrazol-1-yl)pyrimidin-2-yl)-4-(4-fluorophenyl)piperidin-4-ol] |
| 1 to 10 | > 100 | OC1(c2ccc(F)cc2)CCN(c2ccc3nccn3n2)CC1 [Example 81, 4-(4-fluorophenyl)-1-(imidazo[1,2-b]pyridazin-6-yl)piperidin-4-ol] |
| 1 to 10 | > 100 | OC1(c2ccc(F)cc2)CCN(c2cnc3ccccc3n2)CC1 [Example 82, 4-(4-fluorophenyl)-1-(quinoxalin-2-yl)piperidin-4-ol] |
| 0.1 to 1 | > 100 | Cc1nn(C)cc1-c1cnnc(N2CCC(O)(c3ccc(F)c(F)c3)CC2)c1 [Example 88, 4-(3,4-difluorophenyl)-1-(5-(1,3-dimethyl-1H-pyrazol-4-yl)pyridazin-3-yl)piperidin-4-ol] |
| 0.1 to 1 | > 100 | Cc1ncc(N2CCC(O)(c3ccc(F)c(F)c3)CC2)nc1-c1cnn(C)c1 [Example 90, 4-(3,4-difluorophenyl)-1-(5-methyl-6-(1-methyl-1H-pyrazol-4-yl)pyrazin-2-yl)piperidin-4-ol] |
| 0.1 to 1 | > 100 | Cc1nc(-c2cn(C)nc2C)c(F)c(N2CCC(O)(c3ccc(F)c(F)c3)CC2)n1 [Example 91, 4-(3,4-difluorophenyl)-1-(6-(1,3-dimethyl-1H-pyrazol-4-yl)-5-fluoro-2-methylpyrimidin-4-yl)piperidin-4-ol] |
| 0.1 to 1 | > 100 | Cc1cc(C2(O)CCN(c3cncc(-c4cn(C)nc4C)n3)CC2)ccc1F [Example 92, 1-(6-(1,3-dimethyl-1H-pyrazol-4-yl)pyrazin-2-yl)-4-(4-fluoro-3-methylphenyl)piperidin-4-ol] |
| 0.1 to 1 | > 100 | Cc1nn(C)cc1-c1cc(C(N)=O)cc(N2CCC(O)(c3cc(F)c(F)c(F)c3)CC2)n1 [Example 93, 2-(1,3-dimethyl-1H-pyrazol-4-yl)-6-(4-hydroxy-4-(3,4,5-trifluorophenyl)piperidin-1-yl)isonicotinamide] |
| 0.1 to 1 | > 100 | Cc1nn(C)cc1-c1cc(C(N)=O)cc(N2CCC(O)(c3ccc(F)c(Cl)c3)CC2)n1 [Example 94, 2-(4-(3-chloro-4-fluorophenyl)-4-hydroxypiperidin-1-yl)-6-(1,3-dimethyl-1H-pyrazol-4-yl)isonicotinamide] |
| 0.1 to 1 | > 100 | Cc1nn(C)cc1-c1nsc(N2CCC(O)(c3ccc(F)c(F)c3)CC2)n1 [Example 96, 4-(3,4-difluorophenyl)-1-(3-(1,3-dimethyl-1H-pyrazol-4-yl)-1,2,4-thiadiazol-5-yl)piperidin-4-ol] |
| 0.1 to 1 | > 100 | Cc1nn(C)cc1-c1nc(N2CCC(O)(c3ccc(F)c(F)c3)CC2)sc1C(N)=O [Example 98, 2-(4-(3,4-difluorophenyl)-4-hydroxypiperidin-1-yl)-4-(1,3-dimethyl-1H-pyrazol-4-yl)thiazole-5-carboxamide] |
| 0.1 to 1 | > 100 | Cc1nn(C)cc1-c1c[nH]c(=O)c(N2CCC(O)(c3ccc(F)c(F)c3)CC2)n1 [Example 99, 3-(4-(3,4-difluorophenyl)-4-hydroxypiperidin-1-yl)-5-(1,3-dimethyl-1H-pyrazol-4-yl)pyrazin-2(1H)-one] |
| 0.1 to 1 | > 100 | Cc1nc(-c2cn(C)nc2-c2ccccc2)cc(N2CCC(O)(c3ccc(F)c(F)c3)CC2)n1 [Example 100, 4-(3,4-difluorophenyl)-1-(2-methyl-6-(1-methyl-3-phenyl-1H-pyrazol-4-yl)pyrimidin-4-yl)piperidin-4-ol] |
| 0.1 to 1 | > 100 | Cc1nc(-c2cn(C)nc2Cc2ccccc2)cc(N2CCC(O)(c3ccc(F)c(F)c3)CC2)n1 [Example 101, 1-(6-(3-benzyl-1-methyl-1H-pyrazol-4-yl)-2-methylpyrimidin-4-yl)-4-(3,4-difluorophenyl)piperidin-4-ol] |
